US20020147155A1, “Prevention and treatment of endometriosis with aryl hydrocarbon receptor binding ligands” (priority 2001, published 2002)

Columns and labels:
[1] = target: T1, aryl hydrocarbon receptor (Homo sapiens, UniProt P35869); conditions: in culture; cited from earlier work
T1 sequence (P35869 11-848): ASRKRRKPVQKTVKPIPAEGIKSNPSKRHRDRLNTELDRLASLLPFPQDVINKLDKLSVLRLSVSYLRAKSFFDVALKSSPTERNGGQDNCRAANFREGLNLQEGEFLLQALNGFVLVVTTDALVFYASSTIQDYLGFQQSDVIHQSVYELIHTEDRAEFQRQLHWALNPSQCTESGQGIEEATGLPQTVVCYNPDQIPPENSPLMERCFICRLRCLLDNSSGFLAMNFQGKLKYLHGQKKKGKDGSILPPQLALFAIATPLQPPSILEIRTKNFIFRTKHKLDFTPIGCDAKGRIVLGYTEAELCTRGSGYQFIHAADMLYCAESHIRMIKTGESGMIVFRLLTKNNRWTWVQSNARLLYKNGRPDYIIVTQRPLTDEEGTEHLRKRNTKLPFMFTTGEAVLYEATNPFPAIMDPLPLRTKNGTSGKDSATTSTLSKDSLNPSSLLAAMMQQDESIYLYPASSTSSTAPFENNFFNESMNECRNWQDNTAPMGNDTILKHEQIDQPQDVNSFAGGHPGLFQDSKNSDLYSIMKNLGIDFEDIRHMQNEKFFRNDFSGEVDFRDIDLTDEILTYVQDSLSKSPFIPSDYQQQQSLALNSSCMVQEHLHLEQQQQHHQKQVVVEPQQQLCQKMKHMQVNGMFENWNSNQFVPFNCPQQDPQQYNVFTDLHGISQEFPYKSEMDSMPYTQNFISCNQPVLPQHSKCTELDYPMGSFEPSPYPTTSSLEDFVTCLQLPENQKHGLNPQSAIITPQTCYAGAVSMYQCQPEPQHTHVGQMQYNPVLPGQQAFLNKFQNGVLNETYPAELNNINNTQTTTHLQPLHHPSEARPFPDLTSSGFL

[2] = test system: estrogen metabolites; conditions: oral administration, women; cited from earlier work
[3] = test system: uterus; conditions: animal experiment; cited from earlier work
[4] = test system: endometriosis; conditions: rodents and monkeys; cited from earlier work
[5] = test system: endometriotic tissue; assay: Surgically induced endometriosis (autotransplanted endometrial fragments) in cynomolgus monkeys, laparoscopy; format: in vivo, Macaca fascicularis; conditions: for Endometriotic lesion diameter: control 11.4±1.6
Source text: Numerous animal models of endometriosis have been developed involving rabbits (Rock, J A et al., Intraocular endometrium in the rabbit as a model for endometriosis, Fertil. Steril. 59:232-35 [1993]), rodents (Sakura, Y et al., Histological studies on the therapeutic effect of sustained-release microspheres of a potent LHRH agonist (leuprorelin acetate) in an experimental endometriosis model in rats, Endocrinol. Jpn. 37:719-729 [1990]; Rajkumar, K et al., The rat as an animal model for endometriosis to examine recurrence of ectopic endometrial tissue after regression, Fertil. Steril. 53:921-25 [1990]; Sudo, K et al., Effects of TAP-144-SR, a sustained-release formulation of a potent GnRH agonist, on experimental endometriosis in the rat, Endocrinol. Jpn. […] Gynecol. […] Steril. […] An. Sci. 33 :P15 [1994]; Cummings, A M and Metcalf, J L, Induction of endometriosis in mice: a new model sensitive to estrogen, Reprod. Toxicol. 9:233-38 [1995]; Cummings, A M et al., Promotion of endometriosis by 2,3,7,8-tetrachlorodibenzo-p-dioxin in rats and mice: time-dose dependence and species comparison, Toxicol. Appl. Pharmacol. 138:131-39 [1996]; Foster, W G et al., Morphologic characteristics of endometriosis in the mouse model: application to toxicology, Can. J. Physiol. Pharmacol. 75:1188-96 [1997]; Aoki, D et al., Successful heterotransplantation of human endometrium in SCID mice, Obstet. Gynecol. 83:220-28 [1994]; Bruner, K L et al., Suppression of matrix metalloproteinases inhibits establishment of ectopic lesions by human endometrium in nude mice, J. Clin. Invest. 99:2851-57 [1997]), and non-human primates (Schenken, R S et al., Etiology of infertility in monkeys with endometriosis: luteinized unruptured follicles, luteal phase defects, pelvic adhesions, and spontaneous abortions, Fertil. Steril. 41:122-30 [1984]; Rier, S E et al., Endometriosis in rhesus monkeys (Macaca mulatta) following chronic exposure to tetrachlorodibenzo-p-dioxin, Fund. Appl. Toxicol. 21:433-41 [1993]; D'Hooghe, T D et al., Development of a model of retrograde menstruation in baboons (Papio anubis), Fertil. Steril. 62:635-38 [1994]). […] Therefore, a non-human primate model was selected, because monkeys and baboons spontaneously develop endometriosis, the pathophysiology of the disease resembles humans and abundant tissue can be obtained for study purposes. In particular, nulliparous female cynomolgus monkeys (Macaca fascicularis) were the animals chosen.
The effects of subchronic exposure to an AhR binding ligand was examined in a non-human primate model. Endometrial fragments were surgically autotransplanted to the pelvic cavity of nulliparous cynomolgus monkeys (Macaca fascicularis, n=23). Briefly, each monkey's own endometrial tissue was obtained during a laparotomy in which the body of the uterus was opened in the anterior midline. A strip of endometrium was removed by careful dissection and divided into a number of equal pieces, one of which was used for histopathology to confirm the presence of both endometrial epithelium and stroma. […]
The monkeys were divided into 4 treatment groups and dosed five days a week with gelatin capsules containing 0, 1, 5 or 25 ng/kg body mass of AhR binding ligand 2,3,7,8-tetrachlorodibenzo-p-dioxin (TCDD), mixed with glucose. Endometriotic implant survival and diameter were monitored by laparoscopy at intervals of one, three, six and 12 months.

N[C@@H](Cc1c[nH]c2ccccc12)C(=O)O [tryptophan]
Binding to and activation of aryl hydrocarbon receptor [1]: bind to and activate

OCc1c[nH]c2ccccc12 [indole-3-carbinol]
Levels of estrogen metabolites [2]: reduce levels of estrogen metabolites

Fc1ccc2[nH]cc(Cc3c[nH]c4ccccc34)c2c1 [5-fluoro-diindolylmethane]
Uterine wet weight as a percentage of body weight [3]: increase

Clc1cc2c(cc1Cl)Oc1cc(Cl)c(Cl)cc1O2 [TCDD, 2,3,7,8-tetrachlorodibenzo-p-dioxin]
Effect on endometriosis [4]: promoted endometriosis | Endometriotic lesion diameter ([5]; 0.71 ng/kg/day TCDD, oral gelatin capsules): 4.2±0.9 mm | Endometriotic lesion survival rate ([5]; 0.71 ng/kg/day TCDD, oral, control 16%): 20% | Endometriotic lesion survival rate ([5]; 3.57 ng/kg/day TCDD for one year, oral, control 16.0%): 26.7% | Endometriotic lesion diameter ([5]; 17.86 ng/kg/day TCDD for one year, oral): 14.5±0.2 mm | Endometriotic lesion survival rate ([5]; 17.86 ng/kg/day TCDD for one year, oral, control 16.0%): 33.3%

NCCc1c[nH]c2ccccc12 [tryptamine]
Binding to and activation of aryl hydrocarbon receptor [1]: bind to and activate
